The record followed here is BindingDB's records for patent US12466821 (Novartis, 2025).

The structures appear in SMILES notation.

The target in the experiment is T1, DNA polymerase catalytic subunit (Human herpesvirus 1 (strain 17), UniProt P04293).
T1 sequence (P04293 whole entry): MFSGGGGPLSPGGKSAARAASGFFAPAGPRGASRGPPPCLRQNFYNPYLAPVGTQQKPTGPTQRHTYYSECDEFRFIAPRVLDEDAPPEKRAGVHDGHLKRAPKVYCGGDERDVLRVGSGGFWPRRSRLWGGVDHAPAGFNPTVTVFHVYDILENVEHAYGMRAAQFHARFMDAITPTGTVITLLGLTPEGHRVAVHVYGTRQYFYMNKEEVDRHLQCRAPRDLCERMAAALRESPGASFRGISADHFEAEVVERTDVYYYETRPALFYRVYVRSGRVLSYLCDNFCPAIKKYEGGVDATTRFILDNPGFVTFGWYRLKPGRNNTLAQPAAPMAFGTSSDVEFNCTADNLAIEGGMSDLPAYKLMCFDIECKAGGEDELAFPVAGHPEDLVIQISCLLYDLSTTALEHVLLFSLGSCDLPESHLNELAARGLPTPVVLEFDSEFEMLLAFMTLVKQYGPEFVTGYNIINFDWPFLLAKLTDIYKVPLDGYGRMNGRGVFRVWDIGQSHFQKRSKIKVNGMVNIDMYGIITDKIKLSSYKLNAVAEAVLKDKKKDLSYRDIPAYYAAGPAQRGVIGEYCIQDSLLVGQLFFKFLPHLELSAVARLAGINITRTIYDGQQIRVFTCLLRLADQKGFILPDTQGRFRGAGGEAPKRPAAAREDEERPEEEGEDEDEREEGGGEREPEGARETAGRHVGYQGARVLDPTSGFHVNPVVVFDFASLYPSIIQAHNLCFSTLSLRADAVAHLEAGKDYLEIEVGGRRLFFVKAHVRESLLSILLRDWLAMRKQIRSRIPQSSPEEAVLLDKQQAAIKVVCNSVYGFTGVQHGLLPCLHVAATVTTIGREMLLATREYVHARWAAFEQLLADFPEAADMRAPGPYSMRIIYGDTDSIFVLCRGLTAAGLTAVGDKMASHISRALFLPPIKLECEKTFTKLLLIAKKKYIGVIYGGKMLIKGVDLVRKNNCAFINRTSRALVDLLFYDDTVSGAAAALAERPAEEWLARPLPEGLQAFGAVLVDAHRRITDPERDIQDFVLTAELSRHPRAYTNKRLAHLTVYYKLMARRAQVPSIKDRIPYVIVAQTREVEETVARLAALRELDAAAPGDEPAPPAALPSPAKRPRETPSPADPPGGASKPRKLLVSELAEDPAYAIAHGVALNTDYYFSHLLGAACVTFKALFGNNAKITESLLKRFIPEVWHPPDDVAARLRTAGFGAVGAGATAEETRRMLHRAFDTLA
Take `N#Cc1ccc(CNC(=O)c2ccc3n(c2=O)CCN(CC2(S(=O)(=O)CCCO)CC2)C3=O)cc1F` [US12466821, Example 23]: inhibition was half-maximal at 124 nM (IC50).

For `CS(=O)(=O)CCN1CCn2c(ccc(C(=O)NCc3ccc(Cl)cc3)c2=O)C1=O` [US12466821, Example 51], the concentration for half-maximal inhibition (IC50) was determined as 789 nM.

In turn, `CN(C)S(=O)(=O)C1(CN2CCn3c(ccc(C(=O)NCc4ccc(C#N)cc4)c3=O)C2=O)CC1` [US12466821, Example 90-2] yielded a concentration for half-maximal inhibition (IC50) of 19.8 nM.

For the molecule `N#CCS(=O)(=O)C1(CN2CCn3c(ccc(C(=O)NCc4ccc(Cl)cc4)c3=O)C2=O)CC1` [US12466821, Example 108-1], the IC50 was 116 nM.

Molecule `CS(=O)(=O)CCCN1CCn2c(c(C3CC3)cc(C(=O)NCc3ccc(Cl)cc3)c2=O)C1=O` [US12466821, Example 130] showed a half-inhibitory concentration (IC50) of 2420 nM. Compared with the last molecule, the IC50 is about 21-fold higher.

For `O=C(NCc1ccc(Cl)cc1)c1cc(C2CC2)c2n(c1=O)CCN(CCN1CCCS1(=O)=O)C2=O` [US12466821, Example 131], half-maximal inhibition (IC50) required 311 nM.

In turn, `O=C(NCc1ccc(Cl)cc1)c1cc(CC2CC2)c2n(c1=O)CCN(CCN1CCCS1(=O)=O)C2=O` [US12466821, Example 133] registered a concentration for half-maximal inhibition (IC50) of 324 nM.

`CCc1cc(C(=O)NCc2ccc(Cl)cc2)c(=O)n2c1C(=O)N(CCN1CCCS1(=O)=O)CC2` [US12466821, Example 135] displayed an IC50 of 342 nM.

`O=C(NCc1ccc(Cl)cc1)c1cc(C(F)F)c2n(c1=O)CCN(CCN1CCCS1(=O)=O)C2=O` [US12466821, Example 144]: the IC50 amounted to 1110 nM.

`CS(=O)(=O)CCCN1CCn2c(c(C(F)(F)F)cc(C(=O)NCc3ccc(Cl)cc3)c2=O)C1=O` [US12466821, Example 146] returned a half-inhibitory concentration (IC50) of 14800 nM.

As for `Cc1cc(C(=O)NCc2ccc(Cl)cc2)c(=O)n2c1C(=O)N(CC1(N3CCCS3(=O)=O)CC1)CC2` [US12466821, Example 150], the IC50 is 65.3 nM.

With `Cc1cc(C(=O)NCc2ccc(Cl)cc2)c(=O)n2c1C(=O)N(CCC1(S(C)(=O)=O)CC1)CC2` [US12466821, Example 151], the midpoint of inhibition, the IC50, lay at 9250 nM.

`Cc1cc(C(=O)NCc2ccc(Cl)cc2)c(=O)n2c1C(=O)N(CC1(CS(C)(=O)=O)CC1)CC2` [US12466821, Example 154] registered a half-inhibitory concentration (IC50) of 283 nM.

As to `CN(CCN1CCn2c(c(F)cc(C(=O)NCc3ccc(Cl)cc3)c2=O)C1=O)S(C)(=O)=O` [US12466821, Example 160], the IC50 worked out at 2020 nM.

Molecule `CS(=O)(=O)C1(CCN2CCn3c(c(F)cc(C(=O)NCc4ccc(Cl)cc4)c3=O)C2=O)CC1` [US12466821, Example 165] came in with an IC50 of 137000 nM. This IC50 lies about 68-fold higher than the previous one.

In turn, `CS(=O)(=O)C1(CN2CCn3c(c(F)cc(C(=O)NCc4ccc(Cl)cc4)c3=O)C2=O)CC1` [US12466821, Example 167] registered a half-inhibitory concentration (IC50) of 71.8 nM.

The molecule `CS(=O)(=O)CC1(CN2CCn3c(c(F)cc(C(=O)NCc4ccc(Cl)cc4)c3=O)C2=O)CC1` [US12466821, Example 168] showed an IC50 of 292 nM.

Molecule `CS(=O)(=O)C1(CCN2CCn3c(ccc(C(=O)NCc4ccc(Cl)cc4)c3=O)C2=O)CC1` [US12466821, Example 170] yielded an IC50 of 9350 nM.

`NC1(CN2CCn3c(ccc(C(=O)NCc4ccc(Cl)cc4)c3=O)C2=O)CC1` [US12466821, Example 197] registered an IC50 of 3600 nM.

As to `CCOC(=O)C1(CN2CCn3c(ccc(C(=O)NCc4ccc(Cl)cc4)c3=O)C2=O)CC1` [US12466821, Example 207], inhibition was half-maximal at 2900 nM (IC50). This IC50 and that of the molecule before are within 1.5-fold of each other.

Consider `O=C(NCc1ccc(Cl)cc1)c1ccc2n(c1=O)CCN(CC1(C(=O)N3CCC3)CC1)C2=O` [US12466821, Example 208], for which the IC50 worked out at 4530 nM.

`CN(C)C(=O)C1(CN2CCn3c(ccc(C(=O)NCc4ccc(Cl)cc4)c3=O)C2=O)CC1` [US12466821, Example 209] came in with an IC50 of 1640 nM.

On to `O=C(NCc1ccc(Cl)cc1)c1ccc2n(c1=O)CCN(CC1(C(=O)N3CCOCC3)CC1)C2=O` [US12466821, Example 211], for which the concentration for half-maximal inhibition (IC50) is 4770 nM.
